This is an account of results in US20260240876A1, “TREATMENT OF SLEEP APNEA WITH CBD” (Harmony Biosciences Management, Inc., priority 2021, published 2026).

The experiment deals with child and adolescent patients with DEEs. Put plainly: BELIEVE: Sleep Disturbance Scale for Children (SDSC). The experiment is classed as in vivo, human. The note with it: Week 26, negative = improvement, vs revised Baseline mean of completers. How it is done: This was a sequential, multi-stage, open-label, multi-national, multiple-center, multiple-dose study to assess the long-term safety, tolerability, and efficacy of ZYN002 (transdermal CBD gel) in child and adolescent epilepsy patients from 3 to 18 years of age having seizures associated with developmental and epileptic encephalopathies (DEE) according to the International League Against Epilepsy (ILEA) classification (Scheffer et al. 2017). The study was conducted to evaluate efficacy of ZYN002 in DEE patients with ASD. The objective of the study also included evaluating the effects of ZYN002 transdermal CBD gel on QoL, sleep, and caregiver qualitative assessment in child and adolescent patients with DEEs.
• Change from baseline to the end of Period A in the SDSC

SMILES strings stand for the structures.

In the case of `C=C(C)C1CCC(C)=CC1c1c(O)cc(CCCCC)cc1O` (stereo not shown) [CBD, 2-[3-methyl-6-(1-methylethenyl)-2-cyclohexen-1-yl]-5-pentyl-1,3-benzenediol], the “SDSC Sleep Breathing Disorders (SBD), Change from Baseline” value (All Patients (DEE)) is “no significant change”; the “SDSC Sleep Breathing Disorders (SBD), Change from Baseline” value (DEE Patients >70 Total Score) is “no significant change”; the “SDSC Sleep Breathing Disorders (SBD), Change from Baseline” value (DEE-ASD Patients >70 Total Score) was −6.7; the “SDSC Sleep Breathing Disorders (SBD), Change from Baseline” value (DEE-ASD Patients) is −3.9.
